Experimental data published in patent US10322136B2, “Composition for inhibiting growth or proliferation of chronic myelogenous leukemia cancer stem cells, and screening method therefor” (HIROSHIMA UNIVERSITY, priority 2015, dated 2019).

Experiments:
[1] = system: LT-CML cancer stem cells; assay: Colony-forming assay, LT-CML cancer stem cells on OP-9 stromal cells; format: cell-based, mouse; conditions: 5 μM, 5 days, hypoxic (3% O2)
Description: LT-CML stem cells or LT-normal HSCs (1×10^3/plate) were co-cultured on OP-9 stromal cells for 5 days in the presence of either vehicle (control) or a dipeptide transporter inhibitor cefadroxil (5 μM). Cells were harvested, washed with PBS, and plated in semi-solid methylcellulose medium containing SCF, IL-3, IL-6 and erythropoietin (Methocult GF M3434; Stem Cell Technologies). After growth for 7 days in a humidified atmosphere containing 5% CO2 at 37° C., colony numbers were counted under a light microscope. For combination treatments of dipeptide transporter inhibitor+tyrosine kinase inhibitor (TKI), LT-CML cancer stem cells (3×10^3) were plated on OP-9 stromal cells in the presence of cefadroxil (5 μM). After 24 h in culture, the cells received additional DMSO or 1 μM IM (Axon Medchem) and were incubated for another 4 days (total 5 days). Treated cells were washed with PBS, transferred to a semi-solid medium, and colony formation after 7 days was assessed as described above.

[2] = system: BCR-ABL1+ disease; assay: Survival and disease recurrence of BCR-ABL1 CML-affected mice; format: in vivo, mouse; conditions: oral gavage days 8 to 90 post transplantation; IM 100 mg/kg/day; cefadroxil 36 mg/kg/day; versus vehicle
Description: BCR-ABL1 transduction/transplantation-based CML model (BCR-ABL1 CML mice) was also used. Briefly, normal KLS^+ cells (4-5×10^3 cells per recipient mouse) were transduced with the human BCR-ABL1-ires GFP retrovirus and transplanted into irradiated (9 Gy) recipient C57BL/6 mice (Sankyo-Lab Service, Tsukuba, Japan).
Treatment was delivered by oral gavage on days 8 to 90 post transplantation. To examine the effect of single administration of Ly2228820, BCR-ABL1-CML-affected mice received vehicle, or Ly2228820 (2.5 mg kg^−1 every three days; Axon Medchem) in vehicle, by oral gavage on days 8 to 60 days post transplantation.

[3] = system: human CD34+CD38-Lin- CML-LICs; assay: Colony-forming capacity of human CML leukemia-initiating cells; format: cell-based; conditions: 5 μM cefadroxil, 5 days, three patients
Text: Viable BM MNCs from three human patients with chronic phase CML were purchased from All cells (#06-255, #06-620, and #147742, Alameda, Calif., USA). Documents confirming the informed consent of the patient are available in http://www.veritastk.co.jp/attached/3978/AllCells_BM_Informed_Consent_Form.pdf. These cells were stained with anti-CD34(8G12), anti-CD38(HIT2), anti-CD3(SK7), anti-CD16(3G8), anti-CD19(SJ25C1), anti-CD20(L27), anti-CD14(MpP9), and anti-CD56(NCAM16.2) antibodies (all purchased from BD Biosciences). A mixture of mAbs recognizing CD3, CD16, CD19, CD20, CD14 and CD56 was used to identify Lin^− cells, and CD34^+CD38^−Lin^− cells were purified. To determine the effects of treatment with cefadroxil (5 μM) alone, or with a combination of cefadroxil+IM (1 μM; Axon Medchem) or dasatinib (500 nM; LC laboratories), CD34^+CD38^−Lin^− cells were cultured on OP-9 stromal cells under hypoxic (3% O2) conditions. After harvesting and washing with PBS, the colony-forming ability of the most primitive human CML leukemia-initiating cells (LICs) was evaluated by culture in semi-solid methylcellulose medium containing SCF, GM-CSF, IL-3, IL-6, G-CSF, and erythropoietin (Methocult GF+ H4435; Stem Cell Technologies). After growth for 7 days at 37° C. under hypoxic (3% O2) conditions, colony numbers were counted under a light microscope.

[4] = system: Smad3 Ser208; assay: Duolink in situ PLA, Smad3 Ser208 phosphorylation in LT-CML cancer stem cells; format: cell-based, mouse; conditions: 30 min; GlySar or cefadroxil 5 μM; rapamycin 100 nM
Description: (§1) To examine phosphorylation of Smad2, Smad3, p38MAPK, AMPK, and S6 ribosomal protein, and Foxo3a-Smad2 and Foxo3a-Smad3 interactions, Duolink® in situ PLA assay (Olink Bioscience) was used. LT-CML stem cells, ST-CML stem cells, CD48^+, MPP, and KLS^− CML cells that were freshly isolated from CML-affected mice, and LT-normal HSCs that were freshly isolated from healthy control littermates, were immediately fixed with 4% paraformaldehyde for 30 min.
(§2) For in vitro inhibitor experiments, LT-CML stem cells were incubated in 3% O2 at 37° C. for 30 min with vehicle (control; artificial gastric fluid solution (900 ml ddH2O containing 2.0 g of NaCl, 7 ml of conc. HCl and 3.2 g of pepsin)), 5 μM Ly364947 (TGF-β type I receptor kinase Alk5 inhibitor; Merck), 5 μM SB203580 (p38MAPK inhibitor; LC Laboratories), 5 μM GlySar (dipeptide transporter inhibitor; Sigma-Aldrich), 5 μM cefadroxil (dipeptide transporter inhibitor; Sigma-Aldrich), or 100 nM rapamycin (mTORC1 inhibitor; Cell Signaling Technologies). Treated cells were fixed with 4% paraformaldehyde for 30 min, and treated with 0.25% Triton X-100 for 15 min, washed and blocked by incubation in 5% FBS in TBS for 1 hr.
The proximate binding of these antibodies was then detected using Duolink® in situ PLA system which employs a set of two secondary antibodies in which one is conjugated to a minus strand PLA probe and the other is conjugated to a plus strand PLA probe. Nuclei were stained with DNA marker DAPI (Sigma). Stained slides were mounted using Fluoromount Plus (Diagnostic Biosystems) and fluorescent images were acquired by confocal microscopy (FV10i, Olympus) and Photoshop software (Adobe). The number of fluorescent foci per single cell was quantified using Duolink®Image Tool software (Olink Bioscience).

[5] = system: S6 ribosomal protein; assay: Duolink in situ PLA, S6 ribosomal protein phosphorylation in LT-CML cancer stem cells; format: cell-based, mouse; conditions: 30 min; GlySar or cefadroxil 5 μM; rapamycin 100 nM
Description: as §1
as §2, with “Treated cells were fixed with 4% paraformaldehyde for 30 min, and treated with 0.25% Triton X-100 for 15 min, washed and blocked by incubation in 5% FBS in TBS for 1 hr.” left out
The proximate binding of these antibodies was then detected using Duolink® in situ PLA system which employs a set of two secondary antibodies in which one is conjugated to a minus strand PLA probe and the other is conjugated to a plus strand PLA probe. […] The number of fluorescent foci per single cell was quantified using Duolink®Image Tool software (Olink Bioscience).

[6] = system: CML-KLS+ cells; assay: Serial transplantation of CML stem cells; format: in vivo, mouse
Description: To evaluate the retention of the disease-initiating capacity by CML stem cells after treatment of mice with cefadroxil […] and/or IM in vivo, the number of GFP/BCR-ABL1+CMLKLS^+ cells in treated BCR-ABL1 CML-affected mice was determined, and subsequent secondary transplantation of the cells was performed. Briefly, CML-affected mice received by oral gavage for 30 days post BM transplantation as described above. The number of GFP/BCR-ABL1+CML-KLS+ cells among total GFP/BCR-ABL1+CML cells isolated from BM MNCs acquired from the two hindlimbs of treated CML-affected mice was assessed by flow cytometry. Freshly purified GFP/BCR-ABL1^+CML-KLS^+ cells (3×10^4) were then serially transplanted into a second set of lethally irradiated congenic recipient mice along with 5×10^5 normal BM MNCs derived from C57BL/6 mice. Mouse survival and disease recurrence were monitored for 90 days.

[7] = system: Raptor-Ser792; assay: Raptor-Ser792 phosphorylation in LT-CML cancer stem cells; format: cell-based, mouse; conditions: LT-CML cancer stem cells in vitro

## CC1=C(C(=O)O)N2C(=O)[C@@H](NC(=O)[C@H](N)c3ccc(O)cc3)[C@H]2SC1 [cefadroxil]
[1]
  colony-forming capacity of LT-CML cancer stem cells: significantly decreased
[2]
  BCR-ABL1+ disease onset / development: appeared to promote disease development
[3]
  colony-forming capacity of human CML-LIC samples: suppressed
[4]
  Smad3 Ser208 phosphorylation: blocked
[5]
  phosphorylation of S6: decreased phosphorylation
[6]; 3x10^4 cells per recipient, donors treated with cefadroxil
  ability of CML-KLS+ cells from treated mice to drive BCR-ABL1+ disease in new recipients: completely lost their ability
[6]; recipients of CML-KLS+ cells from cefadroxil-treated mice
  survival of new recipient mice: over 90 days
[7]
  Raptor-Ser792 phosphorylation: did not promote
